Results published in patent US20050020519A1, “Modulation of insulin-regulated aminopeptidase (irap)/angiotensin iv (at4) receptor activity” (priority 2001, published 2005).
Like-named read-outs stand apart in the source and are kept apart here. Where a SMILES comes first, the peptide text is derived from it.

Legend:
[1] = tested on: rats; conditions: intracerebroventricular dose 1 nmol; cited from earlier work
[2] = tested on: rat hippocampal slices; assay: Potassium-evoked ^3H-choline release from rat hippocampal slices; type: cell-based; conditions: at 10^−7M
Method: To determine the effect of IRAP inhibitors an acetylcholine release for rat hippocampal slices in vitro, rats were anaesthetized with sodium pentobarbitone, decapitated and the brain rapidly extracted and put on ice. The two sides of the hippocampus were then dissected, and stored in Krebs buffer on ice. The tissues were sectioned into 400 μm slices using a McI1wain slicer, and incubated with 10 μM of ^3H-choline in Krebs buffer for 20 min at 37° C. Following the incubation, the sections were transferred to Brandel superfusion chambers filled with carbogenated Krebs buffer, pH7.0 containing […] hemicholinium HC-3 to prevent choline reuptake. The slices were washed for 60 min at 37° C. with Krebs buffer at a flow rate of 500 μl/min. Superfusate samples were collected at 5 min intervals for the duration of the experiment. After a stable baseline was established, the hippocampal slices were depolarised by the addition of 30 mM KCl to the Krebs buffer and infused for 4 min (stimulation period S1). The tissue was then allowed to recover for 25 min before the next stimulation period (S2). To test the effect of […] […] Fractional ^3H-choline release, expressed as a ratio of S2/S1, was then calculated for each of the different peptides at the different doses.

[3] = tested on: NG108-15 cells; assay: ^3H-thymidine incorporation in NG108-15 cells; type: cell-based, rat-mouse hybrid
Method: (§1) NG108-15 and SK-N-MC cells were cultured in DMEM supplemented with 10% heat-inactivated FCS, 2% HAT supplement, and 100 U/ml penicillin/streptomycin. Cells were routinely used between passages 20 and 30.
(§2) Cells were plated at a density of 3×10^4 cells/well in 24 well Falcon plates that had been coated with 0.1 mg/ml poly-L-lysine hydrobromide. The cells were allowed to adhere overnight, and then serum deprived for 48 h before being treated with […] (SEQ ID NO:2) and/or Ang IV (10^−10 to 10^−6 M) for 24 h in medium with or without serum. Five hours before the end of the experiment 1 μCi of ^3H-thymidine was added to each well. At the completion of the incubation, cells were washed twice with 1 ml of PBS at 4° C., followed by 5% trichloroacetic acid at 4° C. for 30 min, which was aspirated before solubilizing the cells in 1 ml 0.25 M NaOH and 0.1% SDS for 30 min at 37° C. Samples were then collected into 5 ml of Ready Value scintillation fluid and ^3H measured in a liquid scintillation counter.

[4] = conditions similar to the DNA synthesis experiments
[5] = tested on: SK-N-MC cells; assay: [^3H]-thymidine uptake in SK-N-MC cells; type: cell-based; conditions: Ang IV 10^−10-10^−7 M; LVVYPWTQRF 10^−10-10^−6 M
Method: as §1, §2

[6] = tested on: 3T3L1 cells; assay: 2-deoxyglucose uptake in differentiated 3T3L1 adipocytes; conditions: for basal glucose uptake: no insulin, untreated 3.3±0.67
Method: The effect of IRAP inhibitors on the regulation of glucose uptake was determined in 3T3L1 cells. 3T3L1 fibroblasts were differentiated by the addition of DMEM containing 5% fetal calf serum, 4 μg/ml insulin, 0.25 mM dexamethasone and 0.5 mM 3-isobutyl-1-methyl-xanthine. […] The reaction was stopped after 10 min by washing the cells in PBS. The cells were then solubilized in 0.5 N NaOH and counted.

[7] = tested on: rats; conditions: cited from earlier work
[8] = tested on: ERK1/2 phosphorylation; assay: ERK1/2 phosphorylation in rat hippocampal slices (Western blot); type: cell-based; conditions: 10^−8M, 30 min
Method: The potential of IRAP/AT4 ligands to activate MAPK or CREB was initially investigated on rat hippocampal slices. Rats were killed by decapitation and the hippocampi removed, four hundred μm thick slices cut and incubated in aCSF. […] Slices were then lysed in 200 μl of ice-cold lysis buffer (10 mM Tris-HCl pH 7.5, 50 mM NaCl, 1% triton X-100, 30 mM sodium pyrophosphate, 50 mM NaF, 5 μM ZnCl2, 0.1 mM sodium orthovanadate, 1 mM DTT, 5 nM okadaic acid, 1×Boehringer Protease inhibitor cocktail) and centrifuged at full speed. The lysates were then heated at 95° C. for 10 min in 6×SDS loading buffer and the proteins (30 μg per lane) resolved on 7.5% SDS-poylacrylamide gels. After transfer of proteins to PVDF membranes, blots were probed overnight at 4° C. with anti phospho-p44/42 MAP kinase (Thr202/Tyr204) antibody and detected by chemiluminescence using ECL blotting detection reagents and a Fuji LAS-1000.

[9] = tested on: ERK1/2 phosphorylation
Method: The ability of AT4 ligands to stimiuladte MAPK phosphorylation directly was investigated in HEK293 cells transfected with human IRAP. HEK293 cells were transfected with pCI-IRAP or with empty vector, plated on to 12-well plates at a density of 60,000 cells/well and grown in complete medium containing 0.2% fetal calf serum. […] The proteins were then transferred on to nitrocellulose membranes and incubated with phospho-MAPK (p44/42) antibodies and visualised with HRP-conjugated secondary antibody, using the ECL-plus western blot detection system.

[10] = target: T1, human insulin-regulated aminopeptidase (IRAP) / angiotensin IV (AT4) receptor (human, UniProt Q9UIQ6 1-1025); assay: competitive inhibition of L-leucine-β-naphthylamide cleavage by solubilised membranes of IRAP-transfected HEK 293 cells; Ki from IC50=Ki(1+[S]/Km)
T1 construct: whole, on cells; also called AT4 receptor/IRAP; hIRAP
T1 sequence (Q9UIQ6 whole entry): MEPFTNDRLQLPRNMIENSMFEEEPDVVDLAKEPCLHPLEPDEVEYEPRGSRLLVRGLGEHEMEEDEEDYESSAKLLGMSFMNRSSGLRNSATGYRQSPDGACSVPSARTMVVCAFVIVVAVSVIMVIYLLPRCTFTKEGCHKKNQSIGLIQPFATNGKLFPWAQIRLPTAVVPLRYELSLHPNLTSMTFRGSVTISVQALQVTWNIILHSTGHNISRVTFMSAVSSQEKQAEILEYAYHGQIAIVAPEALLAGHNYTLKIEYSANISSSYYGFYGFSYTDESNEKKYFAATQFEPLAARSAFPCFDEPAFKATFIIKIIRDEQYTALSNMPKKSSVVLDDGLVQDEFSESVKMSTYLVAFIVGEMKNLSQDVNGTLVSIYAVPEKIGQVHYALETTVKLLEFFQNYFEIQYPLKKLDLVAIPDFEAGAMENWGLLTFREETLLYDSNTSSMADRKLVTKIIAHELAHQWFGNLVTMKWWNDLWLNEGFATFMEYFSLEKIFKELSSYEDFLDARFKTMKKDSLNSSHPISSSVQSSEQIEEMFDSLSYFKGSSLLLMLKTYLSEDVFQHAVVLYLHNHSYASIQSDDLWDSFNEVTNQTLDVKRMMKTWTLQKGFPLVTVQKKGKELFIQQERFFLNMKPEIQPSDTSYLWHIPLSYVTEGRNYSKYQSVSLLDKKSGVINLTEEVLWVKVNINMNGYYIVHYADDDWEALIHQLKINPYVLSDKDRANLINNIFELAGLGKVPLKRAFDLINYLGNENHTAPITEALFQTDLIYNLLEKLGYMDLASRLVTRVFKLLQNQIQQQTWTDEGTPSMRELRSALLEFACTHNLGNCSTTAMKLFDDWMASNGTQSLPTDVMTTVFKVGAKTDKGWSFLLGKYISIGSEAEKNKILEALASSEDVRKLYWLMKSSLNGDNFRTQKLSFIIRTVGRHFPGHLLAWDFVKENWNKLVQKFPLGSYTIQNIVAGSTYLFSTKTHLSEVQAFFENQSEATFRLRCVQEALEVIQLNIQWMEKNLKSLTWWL

[11] = target: T1, human insulin-regulated aminopeptidase …; assay: cell-based or functional assay
[12] = target: T1, human insulin-regulated aminopeptidase …; assay: radioligand displacement of 125I-Nle-Ang IV

Which results are given for `CC[C@H](C)[C@H](NC(=O)[C@H](Cc1ccc(O)cc1)NC(=O)[C@@H](N)C(C)C)C(=O)N[C@@H](Cc1cnc[nH]1)C(=O)N1CCC[C@H]1C(=O)N[C@@H](Cc1ccccc1)C(=O)O` [Ang IV, VYIHPF]?
latency in re-entering the dark chamber after an aversive stimulus [1]: increased the latency; maximum effect on potassium-evoked ^3H-choline release [2]: 150 % of control; stimulation of DNA synthesis ([3]; 10^−10 to 10^−6 M, alone): did not stimulate DNA synthesis; effect on LVVYPWTQRF-stimulated ^3H-thymidine incorporation ([3]; concomitant 10^−6 M Ang IV): completely abolished; degradation of the peptide [4]: some degradation; increase of [^3H]-thymidine uptake [5]: up to 72 % above control levels

Which results are given for `CCCC[C@H](N)C(=O)N[C@@H](Cc1ccc(O)cc1)C(=O)N[C@H](C(=O)N[C@@H](Cc1c[nH]cn1)C(=O)N1CCC[C@H]1C(=O)N[C@@H](Cc1ccccc1)C(=O)O)[C@@H](C)CC` [Nle^1-Ang IV, Nle′-YIHPF] (HELM PEPTIDE1{[Nle].Y.I.H.P.F}$$$$V2.0; N-terminus and C-terminus assumed)?
insulin-stimulated glucose uptake ([6]; 10^−6 M peptide with 0.7 nM insulin): 18.3 ± 2.39 pmol/min/well; insulin-stimulated glucose uptake ([6]; 10^−6 M peptide with 70 nM insulin): 23.02 ± 1.52 pmol/min/well; basal glucose uptake ([6]; 10^−6 M): 7.6±1.21 pmol/min/well; insulin-stimulated glucose uptake ([6]; 10^−7 M peptide with 0.7 nM insulin): 12.2 ± 2.29 pmol/min/well; insulin-stimulated glucose uptake ([6]; 10^−7 M peptide with 70 nM insulin): 22.99 ± 2.8 pmol/min/well; basal glucose uptake ([6]; 10^−7 M): 7.2±1.79 pmol/min/well; increase of basal glucose uptake ([6]; both concentrations (10^−7 and 10^−6 M)): two-fold; performance in the swim maze task ([7]; chronic infusion (6 days), 0.1 to 0.5 nmol/h, lateral ventricle): enhanced performance; memory deficits induced by scopolamine ([7]; given acutely into the lateral ventricles): reversed the memory deficits; ERK1/2 phosphorylation [8]: induced phosphorylation of ERK1/2; ERK1/2 phosphorylation [9]: induced the phosphorylation of ERK1/2

B1: LVV-hemorphin 7 (LVVYPWTQRF) (peptide)
peptide: LVVYPWTQRF
notes: Globin fragment purified from sheep cerebral cortex; synthetic peptide used in the assays; also called LVV-H7; LV-H7
Which results are given for B1?
Ki [10]: 845 nM; IC50 inhibition leucine β-naphthylamide [11]: 1500 nM; IC50 [12]: 140 nM
